Data taken from ChEMBL document CHEMBL1157538, “Discovery of a potent, selective, and orally bioavailable c-Met inhibitor: 1-(2-hydroxy-2-methylpropyl)-N-(5-(7-methoxyquinolin-4-yloxy)pyridin-2-yl)-5-methyl-3-oxo-2-phenyl-2,3-dihydro-1H-pyrazole-4-carboxamide (AMG 458)” (J Med Chem, 2008).

What was measured:
[1] = Oral bioavailability in Beagle dog at 10 mg/kg; assay type: ADME, organism-based, Canis lupus familiaris; conditions: in vivo
[2] = Oral bioavailability in cynomolgus monkey at 10 mg/kg; assay type: ADME, organism-based, Macaca fascicularis; conditions: in vivo
[3] = Intrinsic clearance in human liver microsome; assay type: ADME; conditions: liver microsomes
[4] = Intrinsic clearance in Sprague-Dawley rat liver microsome; assay type: ADME; conditions: liver microsomes
[5] = Intrinsic clearance in BALB/c mouse liver microsome; assay type: ADME; conditions: liver microsomes
[6] = Intrinsic clearance in Beagle dog liver microsome; assay type: ADME, Canis lupus familiaris; conditions: liver microsomes
[7] = Intrinsic clearance in cynomolgus monkey liver microsome; assay type: ADME, Macaca fascicularis; conditions: liver microsomes
[8] = test system: NIH3T3; assay: Antitumor activity in TPR-Met expressing […] NIH3T3 cells xenografted in po dosed mouse assessed as tumor growth inhibition after 24 hrs; assay type: functional
[9] = Antitumor activity in human U87MG cells xenografted orally dosed CD1 NU/NU mouse assessed as tumor growth inhibition after 14 days; assay type: functional, U-87MG ATCC; conditions: U-87 MG, po, 336 h
[10] = Inhibition of RON
[11] = biological target: Tyrosine-protein kinase Fes/Fps (Homo sapiens, UniProt P07332); assay: Inhibition of FES
[12] = biological target: Tyrosine-protein kinase Blk (Homo sapiens, UniProt P51451); assay: Inhibition of BLK
[13] = biological target: T1, Receptor-type tyrosine-protein kinase FLT3 (Homo sapiens, UniProt P36888); assay: Inhibition of FLT3
T1 sequence (P36888 whole entry): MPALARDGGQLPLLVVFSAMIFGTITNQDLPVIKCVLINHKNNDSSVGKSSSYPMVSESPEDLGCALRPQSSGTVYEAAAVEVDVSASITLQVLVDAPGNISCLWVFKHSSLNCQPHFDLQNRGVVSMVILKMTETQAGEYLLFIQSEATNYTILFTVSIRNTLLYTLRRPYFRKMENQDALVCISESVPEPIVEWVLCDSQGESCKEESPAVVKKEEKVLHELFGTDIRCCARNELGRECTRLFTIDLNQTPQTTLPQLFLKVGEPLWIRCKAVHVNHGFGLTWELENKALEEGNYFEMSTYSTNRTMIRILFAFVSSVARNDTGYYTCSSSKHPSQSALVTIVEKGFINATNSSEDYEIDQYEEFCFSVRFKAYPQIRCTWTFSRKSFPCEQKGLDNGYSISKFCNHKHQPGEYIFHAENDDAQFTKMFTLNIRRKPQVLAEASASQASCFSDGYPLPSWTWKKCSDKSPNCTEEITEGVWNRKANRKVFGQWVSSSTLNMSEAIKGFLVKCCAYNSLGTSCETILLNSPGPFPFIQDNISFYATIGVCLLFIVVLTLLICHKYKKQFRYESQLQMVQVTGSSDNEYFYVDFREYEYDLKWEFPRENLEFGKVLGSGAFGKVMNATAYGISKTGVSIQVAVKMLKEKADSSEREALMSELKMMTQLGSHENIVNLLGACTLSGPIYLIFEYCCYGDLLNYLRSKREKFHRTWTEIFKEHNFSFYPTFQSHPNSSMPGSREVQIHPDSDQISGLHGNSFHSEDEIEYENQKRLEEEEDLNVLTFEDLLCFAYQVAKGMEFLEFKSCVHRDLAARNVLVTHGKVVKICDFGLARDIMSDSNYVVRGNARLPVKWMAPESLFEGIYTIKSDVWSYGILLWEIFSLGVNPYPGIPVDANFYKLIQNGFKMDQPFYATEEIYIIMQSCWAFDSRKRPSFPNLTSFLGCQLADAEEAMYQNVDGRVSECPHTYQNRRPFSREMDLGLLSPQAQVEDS

[14] = biological target: T2, Cytoplasmic tyrosine-protein kinase BMX (Homo sapiens, UniProt P51813); assay: Inhibition of BMX
T2 sequence (P51813 whole entry): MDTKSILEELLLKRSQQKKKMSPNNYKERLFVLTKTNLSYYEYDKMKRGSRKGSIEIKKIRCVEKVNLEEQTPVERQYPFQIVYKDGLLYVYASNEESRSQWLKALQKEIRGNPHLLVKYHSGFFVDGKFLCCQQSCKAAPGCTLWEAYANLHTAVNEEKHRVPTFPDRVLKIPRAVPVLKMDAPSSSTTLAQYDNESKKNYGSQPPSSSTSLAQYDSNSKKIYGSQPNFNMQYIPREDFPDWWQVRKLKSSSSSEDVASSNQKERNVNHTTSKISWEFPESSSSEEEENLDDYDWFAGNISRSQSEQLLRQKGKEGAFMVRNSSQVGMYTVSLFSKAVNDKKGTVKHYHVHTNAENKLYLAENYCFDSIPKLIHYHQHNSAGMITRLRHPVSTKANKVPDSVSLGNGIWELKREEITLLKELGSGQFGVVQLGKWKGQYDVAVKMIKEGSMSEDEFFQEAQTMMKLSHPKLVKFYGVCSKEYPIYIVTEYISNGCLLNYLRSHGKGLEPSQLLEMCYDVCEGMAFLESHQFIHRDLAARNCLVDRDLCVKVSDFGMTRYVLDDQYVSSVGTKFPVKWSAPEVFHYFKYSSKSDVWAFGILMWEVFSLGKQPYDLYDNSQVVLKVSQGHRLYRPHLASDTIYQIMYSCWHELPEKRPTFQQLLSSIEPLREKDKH

[15] = biological target: Tyrosine-protein kinase Fgr (Homo sapiens, UniProt P09769); assay: Inhibition of FGR
[16] = Inhibition of Aurora1
[17] = biological target: Tyrosine-protein kinase CSK (Homo sapiens, UniProt P41240); assay: Inhibition of CSK
[18] = Inhibition of PDGF
[19] = biological target: T3, Tyrosine-protein kinase ITK/TSK (Homo sapiens, UniProt Q08881); assay: Inhibition of ITK
T3 sequence (Q08881 whole entry): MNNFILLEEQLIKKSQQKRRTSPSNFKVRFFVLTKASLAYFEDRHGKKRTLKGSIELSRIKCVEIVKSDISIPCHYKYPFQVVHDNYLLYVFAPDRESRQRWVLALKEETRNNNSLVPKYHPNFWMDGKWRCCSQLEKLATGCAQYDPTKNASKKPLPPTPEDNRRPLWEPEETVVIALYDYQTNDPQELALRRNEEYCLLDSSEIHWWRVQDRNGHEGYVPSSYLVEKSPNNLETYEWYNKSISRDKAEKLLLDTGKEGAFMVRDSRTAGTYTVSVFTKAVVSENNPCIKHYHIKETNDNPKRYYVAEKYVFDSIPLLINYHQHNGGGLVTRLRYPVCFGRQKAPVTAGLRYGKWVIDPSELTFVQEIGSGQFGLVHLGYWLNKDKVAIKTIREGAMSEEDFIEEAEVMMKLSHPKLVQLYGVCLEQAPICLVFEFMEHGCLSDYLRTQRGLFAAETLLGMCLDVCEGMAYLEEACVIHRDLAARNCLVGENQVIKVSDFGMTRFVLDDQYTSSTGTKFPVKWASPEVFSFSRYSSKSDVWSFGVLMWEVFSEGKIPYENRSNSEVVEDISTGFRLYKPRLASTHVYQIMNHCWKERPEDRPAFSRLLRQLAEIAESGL

[20] = biological target: Tyrosine-protein kinase Lyn (Homo sapiens, UniProt P07948); assay: Inhibition of Lyn
[21] = Apparent permeability across pig LLC-PK1 cells; assay type: ADME, cell-based, Sus scrofa; conditions: read-out: permeability
[22] = Permeability from apical to basolateral side of human Caco-2 cell monolayer; assay type: ADME, cell-based; conditions: read-out: permeability
[23] = biological target: T4, Hepatocyte growth factor receptor (Mus musculus, UniProt P16056); assay: Inhibition of HGF-mediated c-Met phosphorylation in mouse CT26 cells; assay type: cell-based
[24] = Drug level in po dosed BALB/c mouse plasma after 6 hrs; assay type: ADME, organism-based
[25] = test system: Mus musculus; assay: Inhibition of HGF-mediated c-Met phosphorylation in po dosed BALB/c mouse liver after 6 hrs; assay type: functional
[26] = test system: Mus musculus; assay: Toxicity in human U87MG cells xenografted CD1 NU/NU mouse assessed as effect on body weight at 30 mg/kg and 100 mg/kg, qd for 14 days; assay type: organism-based, U-87MG ATCC; conditions: in vivo, 336 h
[27] = test system: Mus musculus; assay: Toxicity in human U87MG cells xenografted CD1 NU/NU mouse assessed as effect on body weight at 30 mg/kg BID for 14 days; assay type: organism-based, U-87MG ATCC; set-up: dose 30 mg/kg; conditions: in vivo, 336 h
[28] = Terminal half life in BALB/c mouse; assay type: ADME, organism-based; conditions: in vivo, read-out: beta t1/2
[29] = Terminal half life in Sprague-Dawley rat; assay type: ADME, organism-based; conditions: in vivo, read-out: beta t1/2
[30] = biological target: T5, Hepatocyte growth factor receptor (Homo sapiens, UniProt P08581); assay: Inhibition of HGF-mediated c-Met phosphorylation in human PC3 cells; assay type: cell-based, PC-3
[31] = biological target: T5, Hepatocyte growth factor receptor; assay: Inhibition of human c-Met by HTRF assay
[32] = biological target: T4, Hepatocyte growth factor receptor; assay: Inhibition of mouse c-Met by HTRF assay
[33] = Inhibition c-Met […] mutant
[34] = biological target: Hepatocyte growth factor receptor (Homo sapiens, UniProt P08581, D1228H); assay: Inhibition c-Met D1228H mutant by HTRF assay
[35] = biological target: Hepatocyte growth factor receptor (Homo sapiens, UniProt P08581, M1250T); assay: Inhibition c-Met M1250T mutant by HTRF assay
[36] = biological target: Hepatocyte growth factor receptor (Homo sapiens, UniProt P08581, H1094R); assay: Inhibition c-Met H1094R mutant by HTRF assay
[37] = biological target: Hepatocyte growth factor receptor (Homo sapiens, UniProt P08581, Y1230H); assay: Inhibition c-Met Y1230H mutant by HTRF assay
[38] = Clearance in BALB/c mouse at 1 mg/kg, iv or 10 mg/kg, po; assay type: ADME, organism-based; conditions: in vivo
[39] = Clearance in Sprague-Dawley rat at 1 mg/kg, iv or 10 mg/kg, po; assay type: ADME, organism-based; conditions: in vivo
[40] = Clearance in Beagle dog at 1 mg/kg, iv or 10 mg/kg, po; assay type: ADME, organism-based, Canis lupus familiaris; conditions: in vivo
[41] = Clearance in cynomolgus monkey at 1 mg/kg, iv or 10 mg/kg, po; assay type: ADME, organism-based, Macaca fascicularis; conditions: in vivo
[42] = Volume of distribution at steady state in BALB/c mouse at 1 mg/kg, iv or 10 mg/kg, po; assay type: ADME, organism-based; conditions: in vivo, read-out: Vdss
[43] = Volume of distribution at steady state in Sprague-Dawley rat at 1 mg/kg, iv or 10 mg/kg, po; assay type: ADME, organism-based; conditions: in vivo
[44] = Volume of distribution at steady state in Beagle dog at 1 mg/kg, iv or 10 mg/kg, po; assay type: ADME, organism-based, Canis lupus familiaris; conditions: in vivo, read-out: Vdss
[45] = Volume of distribution at steady state in cynomolgus monkey at 1 mg/kg, iv or 10 mg/kg, po; assay type: ADME, organism-based, Macaca fascicularis; conditions: in vivo, read-out: Vdss
[46] = Half life in BALB/c mouse at 1 mg/kg, iv or 10 mg/kg, po; assay type: ADME, organism-based; conditions: in vivo
[47] = Half life in Sprague-Dawley rat at 1 mg/kg, iv or 10 mg/kg, po; assay type: ADME, organism-based; conditions: in vivo
[48] = Half life in Beagle dog at 1 mg/kg, iv or 10 mg/kg, po; assay type: ADME, organism-based, Canis lupus familiaris; conditions: in vivo
[49] = Half life in cynomolgus monkey at 1 mg/kg, iv or 10 mg/kg, po; assay type: ADME, organism-based, Macaca fascicularis; conditions: in vivo
[50] = Oral bioavailability in BALB/c mouse at 10 mg/kg; assay type: ADME, organism-based; conditions: in vivo
[51] = Oral bioavailability in Sprague-Dawley rat at 10 mg/kg; assay type: ADME, organism-based; conditions: in vivo
[52] = biological target: Macrophage colony-stimulating factor 1 receptor (Homo sapiens, UniProt P07333)

COc1ccc2c(Oc3ccc(NC(=O)c4c(C)n(CC(C)(C)O)n(-c5ccccc5)c4=O)nc3)ccnc2c1
bioavailability [1]: 100%
bioavailability [2]: 78%
microsomal CLint [3]: 18 µL/min/mg
microsomal CLint [4]: 62 µL/min/mg
microsomal CLint [5]: < 5 µL/min/mg
microsomal CLint [6]: 8 µL/min/mg
microsomal CLint [7]: 8 µL/min/mg
ED50 [8]: 12 mg/kg
ED90 [8]: 34 mg/kg
ED50 [9]: 16 mg/kg
ED90 [9]: 59 mg/kg
IC50 [10]: 8 nM
IC50 [11]: 706 nM
IC50 [12]: 519 nM
IC50 [13]: 391 nM
IC50 [14]: 363 nM
IC50 [15]: 328 nM
IC50 [16]: 280 nM
IC50 [17]: 165 nM
IC50 [18]: 120 nM
IC50 [19]: 62 nM
IC50 [20]: 506 nM
Papp [21]: 27 ×10⁻⁶ cm/s
Papp A→B [22]: 32 ×10⁻⁶ cm/s
IC50 [23]: 120 nM
concentration at 6 h [24]: 15 µM
ED90 [25]: 30 mg/kg
Activity [26]: Non-toxic
Activity [27]: Non-toxic
half-life [28]: < 2 h
half-life [29]: < 2 h
IC50 [30]: 60 nM
Ki [31]: 1.2 nM
Ki [32]: 2 nM
Ki [33]: 1.1 nM
Ki [34]: 2.2 nM
Ki [35]: 4.1 nM
Ki [36]: 0.5 nM
Ki [37]: 4.5 nM
clearance [38]: 2.67 mL/min/kg
clearance [39]: 12.2 mL/min/kg
clearance [40]: 5.67 mL/min/kg
clearance [41]: 1.67 mL/min/kg
Vd [42]: 0.31 L/kg
Vd [43]: 0.62 L/kg
Vd [44]: 0.75 L/kg
Vd [45]: 0.56 L/kg
half-life [46]: 1.3 h
half-life [47]: 1 h
half-life [48]: 2.8 h
half-life [49]: 5.7 h
bioavailability [50]: 100%
bioavailability [51]: 100%
IC50 [52]: 238 nM
